Results on 18 compounds are retold here after paper PMC5518475 (Bioorganic & medicinal chemistry letters, 2017).

One data set addresses T1, hM4 (Homo sapiens, UniProt P08173).
T1 sequence (P08173 1-479): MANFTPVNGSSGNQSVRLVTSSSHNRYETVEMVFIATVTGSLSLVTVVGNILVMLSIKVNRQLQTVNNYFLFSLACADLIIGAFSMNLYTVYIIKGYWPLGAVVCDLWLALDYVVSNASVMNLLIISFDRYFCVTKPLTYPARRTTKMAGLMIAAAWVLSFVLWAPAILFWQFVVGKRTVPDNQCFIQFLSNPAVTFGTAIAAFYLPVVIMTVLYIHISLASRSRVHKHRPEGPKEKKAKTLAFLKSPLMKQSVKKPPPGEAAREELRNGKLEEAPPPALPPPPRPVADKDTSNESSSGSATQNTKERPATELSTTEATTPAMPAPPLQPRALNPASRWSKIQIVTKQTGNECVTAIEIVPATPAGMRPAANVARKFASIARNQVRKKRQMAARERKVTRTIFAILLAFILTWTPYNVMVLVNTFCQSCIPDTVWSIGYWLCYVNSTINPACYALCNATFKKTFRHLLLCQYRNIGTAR
In kind it is cell-based. To be noted: for hM4 pEC50 (±SEM): hM4/Gqi5-CHO cells, EC20 fixed concentration of acetylcholine, mean of n=3.

The nature of another data set: Rat in vivo PK. To be noted: rat in vivo PK studies.
Data set [1] is described as follows: Predicted hepatic clearance from rat hepatic microsomal CLint. It counts as in vitro ADME. The conditions noted are these: based on hepatic microsomal CLint.
Data set [2] is described as follows: Predicted hepatic clearance from human hepatic microsomal CLint. In kind it is in vitro ADME. To be noted: based on hepatic microsomal CLint.
The next data set addresses human P-gp (Homo sapiens, UniProt P08183). Briefly: P-gp efflux in MDCK-MDR1 cells. It counts as in vitro ADME.
For another data set, the system named is CYP450. Briefly: CYP450 time-dependent inhibition. In kind it is in vitro ADME.
The next data set addresses cynomolgus monkey M4 (Macaca fascicularis, UniProt G7PQB4). Briefly: ACh CRC fold-shift experiments. It counts as cell-based. The conditions noted are these: operational model.
A further data set addresses T2, human M4 (Homo sapiens, UniProt P08173).
T2 sequence (P08173 1-479): T1 sequence (P08173 1-479)
The experiment in a line: ACh CRC fold-shift experiments. The conditions noted are these: operational model. In kind it is cell-based.

Another data set is described as follows: Dog in vivo PK. The conditions noted are these: female, mongrel, plasma, iv.
The nature of a further data set: Predicted human PK. To be noted: based on moderate and small predicted CL and Vss.

Chain of human P-gp (P08183 whole entry): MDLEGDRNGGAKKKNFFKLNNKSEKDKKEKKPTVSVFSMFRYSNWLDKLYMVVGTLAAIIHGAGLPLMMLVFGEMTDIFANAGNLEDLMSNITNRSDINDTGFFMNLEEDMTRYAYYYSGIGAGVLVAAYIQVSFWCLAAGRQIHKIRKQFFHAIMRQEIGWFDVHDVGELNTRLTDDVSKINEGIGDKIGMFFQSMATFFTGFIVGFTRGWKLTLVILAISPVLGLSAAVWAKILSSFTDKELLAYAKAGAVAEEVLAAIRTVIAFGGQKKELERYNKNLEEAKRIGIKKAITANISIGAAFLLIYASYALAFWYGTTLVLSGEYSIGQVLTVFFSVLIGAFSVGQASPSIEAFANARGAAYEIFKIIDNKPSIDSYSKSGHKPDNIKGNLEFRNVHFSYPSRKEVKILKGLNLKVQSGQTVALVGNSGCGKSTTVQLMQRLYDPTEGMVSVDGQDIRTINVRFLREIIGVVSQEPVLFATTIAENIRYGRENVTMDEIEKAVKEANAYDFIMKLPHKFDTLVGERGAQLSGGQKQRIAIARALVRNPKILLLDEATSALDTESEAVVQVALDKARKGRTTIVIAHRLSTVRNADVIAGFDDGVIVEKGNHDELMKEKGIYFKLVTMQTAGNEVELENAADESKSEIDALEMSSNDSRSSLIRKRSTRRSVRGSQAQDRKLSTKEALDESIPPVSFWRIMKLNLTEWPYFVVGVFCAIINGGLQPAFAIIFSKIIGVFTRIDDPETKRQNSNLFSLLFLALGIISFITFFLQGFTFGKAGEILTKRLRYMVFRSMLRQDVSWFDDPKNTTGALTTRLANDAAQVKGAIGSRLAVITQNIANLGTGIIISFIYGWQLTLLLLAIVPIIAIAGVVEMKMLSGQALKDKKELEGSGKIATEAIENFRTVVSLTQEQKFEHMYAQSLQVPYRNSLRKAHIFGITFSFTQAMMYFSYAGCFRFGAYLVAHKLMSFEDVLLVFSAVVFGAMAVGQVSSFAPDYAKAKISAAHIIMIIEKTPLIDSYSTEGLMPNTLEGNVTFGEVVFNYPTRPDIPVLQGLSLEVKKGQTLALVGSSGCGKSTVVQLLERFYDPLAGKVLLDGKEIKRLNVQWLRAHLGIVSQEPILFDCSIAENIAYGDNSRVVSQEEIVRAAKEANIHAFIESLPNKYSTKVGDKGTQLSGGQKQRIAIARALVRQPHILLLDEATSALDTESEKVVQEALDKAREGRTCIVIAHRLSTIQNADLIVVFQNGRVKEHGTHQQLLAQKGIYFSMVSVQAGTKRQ

As for `Cc1nnc2sc(C(=O)NC3CN(C(=O)c4ccccc4)C3)c(N)c2c1C` [Compound 6f], the “hM4 pEC50 (±SEM)” value on hM4 was determined as 6.22±0.25.

With `COc1cc(N2CC(NC(=O)c3sc4nnc(C)c(C)c4c3N)C2)ccn1` [Compound 16o], the “rat in vivo PK finding on metabolism” value in “Rat in vivo PK” is recorded as “evidence for extrahepatic non-CYP450 metabolism”. Consider `Cc1nnc2sc(C(=O)NC3CN(c4nc5cccnc5s4)C3)c(N)c2c1C` [Compound 16c], for which, on hM4, the “hM4 pEC50 (±SEM)” value was 7.04±0.16. Moreover, the “predicted CLhep” value in [1] is 41 mL/min/kg; in data set [2] it was 12 mL/min/kg. On to `Cc1nnc2sc(C(=O)NC3CN(c4cc(F)nc(F)c4)C3)c(N)c2c1C` [Compound 16q], for which the “human P-gp efflux substrate” value on human P-gp is reported as “substrates for human P-gp efflux”. `Cc1nnc2sc(C(=O)NC3CN(c4cccc(F)c4F)C3)c(N)c2c1C` [Compound 17j]: in the data set with CYP450, the “time-dependent CYP450 inhibition” value is recorded as “no evidence for time-dependent inhibition”. Moreover, at cynomolgus monkey M4, the “cynomolgus monkey M4 αβ” value is 120. Moreover, at human M4, the “human M4 αβ” value came to 380. The Ames test result in “Ames test” is given as “no evidence of mutagenesis”. For the same compound, in “Dog in vivo PK”, the clearance (in general, a measure of how efficiently the substance is removed, as volume per time) is 17 mL/min/kg. Besides, the “predicted human t1/2” value in “Predicted human PK” was 1 to 2 h. For `Cc1nnc2sc(C(=O)NC3CN(C(=O)OCc4ccccc4)C3)c(N)c2c1C` [Compound 6a], on hM4, the “hM4 pEC50 (±SEM)” value turned out to be 7.62±0.19.

In the case of `Cc1nnc2sc(C(=O)NC3CN(c4ccccn4)C3)c(N)c2c1C` [Compound 16d], on hM4, the “hM4 pEC50 (±SEM)” value came to 6.99±0.18.

Turning to `Cc1nnc2sc(C(=O)NC3CN(c4cccnc4F)C3)c(N)c2c1C` [Compound 16i], the “hM4 pEC50 (±SEM)” value on hM4 was found to be 7.74±0.22. In addition, the “human P-gp efflux substrate” value on human P-gp is on record as “substrates for human P-gp efflux”. Regarding `Cc1nnc2sc(C(=O)NC3CN(c4cccnc4)C3)c(N)c2c1C` [Compound 16e], the “human P-gp efflux substrate” value on human P-gp is recorded as “substrates for human P-gp efflux”. With `Cc1nnc2sc(C(=O)NC3CN(c4ccc(S(=O)(=O)C(F)(F)F)cc4)C3)c(N)c2c1C` [Compound 17f], the “weaker hM4 activity compared to that of 17j” value on hM4 is reported as ~ 10 fold. For `Cc1nnc2sc(C(=O)NC3CN(c4ccc(S(=O)(=O)C(F)F)cc4)C3)c(N)c2c1C` [Compound 17g], at hM4, the “weaker hM4 activity compared to that of 17j” value is listed as about 40 fold and the “hM4 pEC50 (±SEM)” value is recorded as 6.63±0.29. On to `Cc1nnc2sc(C(=O)NC3CN(c4ccnc(Cl)c4)C3)c(N)c2c1C` [Compound 16n], for which the “hM4 pEC50 (±SEM)” value on hM4 is recorded as 6.80±0.19. Consider `Cc1nnc2sc(C(=O)NC3CN(c4ccc(C(F)(F)F)nc4)C3)c(N)c2c1C` [Compound 16j], for which the results for the “predicted CLhep” value in data set [1] and in data set [2] were 18 mL/min/kg and 5.6 mL/min/kg, respectively. As to `Cc1nnc2sc(C(=O)NC3CN(c4ccc(F)cc4F)C3)c(N)c2c1C` [Compound 17h], the “hM4 pEC50 (±SEM)” value on hM4 was determined as 7.49±0.12. On the same count and under the same terms, the same measure for `Cc1nnc2sc(C(=O)NC3CN(c4ccncn4)C3)c(N)c2c1C` [Compound 16h]: 7.48±0.17.

Consider `Cc1cccc(OC(=O)N2CC(NC(=O)c3sc4nnc(C)c(C)c4c3N)C2)c1` [Compound 6c], for which the “hM4 pEC50 (±SEM)” value at hM4 is 7.23±0.17.

Regarding `Cc1nnc2sc(C(=O)NC3CN(c4ccncc4Cl)C3)c(N)c2c1C` [Compound 16p], the “rat in vivo PK finding on metabolism” value in the data set “Rat in vivo PK” is listed as “evidence for extrahepatic non-CYP450 metabolism”. With `Cc1nnc2sc(C(=O)NC3CN(c4nc5ccccc5o4)C3)c(N)c2c1C` [Compound 16b], at hM4, the “hM4 pEC50 (±SEM)” value came to 6.45±0.19.
